Source: ChEMBL document CHEMBL2384909, “Development of Novel Alkene Oxindole Derivatives As Orally Efficacious AMP-Activated Protein Kinase Activators” (ACS Med Chem Lett, 2013)
Activity calls are given as the source filed them. No cut-off for these calls is given here.

Experiments:
[1] = test system: Mus musculus; test: Upregulation of COX5B gene expression in C57BL/6J mouse muscles at 15 to 150 mg/kg, po; assay type: functional, organism-based; conditions: Muscle tissue
[2] = test system: Mus musculus; test: Upregulation of PDK4 gene expression in C57BL/6J mouse muscles at 15 to 150 mg/kg, po; assay type: functional, organism-based; conditions: Muscle tissue
[3] = Plasma concentration in Wistar rat at 10 mg/kg, po after 4 hrs by LC-MS/MS analysis; assay type: ADME, organism-based; set-up: dose 10 mg/kg, route oral
[4] = AUC (0 to 24 hrs) in Wistar rat at 2 mg/kg, iv by LC-MS/MS analysis; assay type: ADME, organism-based; set-up: time < 24 hr, dose 2 mg/kg, route intravenous; conditions: plasma
[5] = target: T1, Cytochrome P450 1A2 (Homo sapiens, UniProt P05177); test: Inhibition of CYP1A2 (unknown origin); assay type: ADME
T1 sequence (P05177 whole entry): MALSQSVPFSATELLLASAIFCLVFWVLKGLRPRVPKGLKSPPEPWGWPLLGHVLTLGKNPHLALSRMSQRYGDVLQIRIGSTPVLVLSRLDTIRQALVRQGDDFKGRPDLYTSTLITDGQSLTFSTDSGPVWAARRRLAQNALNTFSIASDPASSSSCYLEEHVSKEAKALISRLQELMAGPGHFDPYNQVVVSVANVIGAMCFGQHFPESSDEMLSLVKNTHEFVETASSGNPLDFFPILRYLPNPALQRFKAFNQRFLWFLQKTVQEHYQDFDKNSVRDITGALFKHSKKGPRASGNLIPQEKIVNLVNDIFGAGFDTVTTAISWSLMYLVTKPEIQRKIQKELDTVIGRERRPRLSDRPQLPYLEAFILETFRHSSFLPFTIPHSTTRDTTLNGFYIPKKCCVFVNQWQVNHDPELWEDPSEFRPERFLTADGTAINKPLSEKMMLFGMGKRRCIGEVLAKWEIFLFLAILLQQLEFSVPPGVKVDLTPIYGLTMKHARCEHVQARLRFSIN

[6] = target: Cytochrome P450 3A4 (Homo sapiens, UniProt P08684); test: Inhibition of CYP3A4 (unknown origin); assay type: ADME
[7] = test system: Liver microsomes; test: Drug metabolism in rat liver microsomes; assay type: ADME, Microsome
[8] = target: T2, Aurora kinase A (Homo sapiens) (UniProt O14965); test: Activity at Aurora A (unknown origin)
T2 sequence (whole entry): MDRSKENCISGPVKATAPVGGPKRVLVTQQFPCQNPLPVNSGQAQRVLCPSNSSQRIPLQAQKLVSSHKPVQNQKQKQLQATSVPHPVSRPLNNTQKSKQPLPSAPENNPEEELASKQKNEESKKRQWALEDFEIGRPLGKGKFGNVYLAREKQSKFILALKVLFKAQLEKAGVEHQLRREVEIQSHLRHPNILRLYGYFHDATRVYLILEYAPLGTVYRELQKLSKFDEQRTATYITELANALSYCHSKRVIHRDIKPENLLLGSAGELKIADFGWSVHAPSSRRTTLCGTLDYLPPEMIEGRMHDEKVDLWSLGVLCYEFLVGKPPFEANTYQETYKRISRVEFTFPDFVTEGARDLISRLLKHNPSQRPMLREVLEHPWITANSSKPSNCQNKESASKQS

[9] = target: AMPK alpha2/beta1/gamma1 (Homo sapiens) (UniProt P54646+P54619+Q9Y478); test: Activation of recombinant AMPK alpha2beta1gamma1 (unknown origin) at 20 ug/mL after 2 hrs by scintillation proximity assay relative to AMP; assay type: protein-complex assay
[10] = test system: Mus musculus; test: Antidiabetic activity in diet-induced obese C57BL/6J mouse assessed as improved glucose tolerance at 50 to 150 mg/kg, po qd for 4 weeks by glucose tolerance test

Cytochrome P450 3A4, sequence (P08684 whole entry): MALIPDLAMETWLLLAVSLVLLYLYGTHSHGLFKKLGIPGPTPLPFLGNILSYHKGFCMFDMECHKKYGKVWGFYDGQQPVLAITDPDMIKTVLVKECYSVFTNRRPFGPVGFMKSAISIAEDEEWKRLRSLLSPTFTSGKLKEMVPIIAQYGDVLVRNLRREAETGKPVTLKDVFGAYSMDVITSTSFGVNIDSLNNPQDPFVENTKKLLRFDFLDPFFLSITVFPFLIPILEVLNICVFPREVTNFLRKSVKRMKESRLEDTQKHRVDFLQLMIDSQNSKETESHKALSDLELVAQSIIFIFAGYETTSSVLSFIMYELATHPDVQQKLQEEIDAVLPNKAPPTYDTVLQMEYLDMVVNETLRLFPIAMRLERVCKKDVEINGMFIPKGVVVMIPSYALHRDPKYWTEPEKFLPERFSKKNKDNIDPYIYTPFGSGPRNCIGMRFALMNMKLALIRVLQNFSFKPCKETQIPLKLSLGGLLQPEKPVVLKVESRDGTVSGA
AMPK alpha2/beta1/gamma1 (Homo sapiens), sequence (P54619 whole entry partner): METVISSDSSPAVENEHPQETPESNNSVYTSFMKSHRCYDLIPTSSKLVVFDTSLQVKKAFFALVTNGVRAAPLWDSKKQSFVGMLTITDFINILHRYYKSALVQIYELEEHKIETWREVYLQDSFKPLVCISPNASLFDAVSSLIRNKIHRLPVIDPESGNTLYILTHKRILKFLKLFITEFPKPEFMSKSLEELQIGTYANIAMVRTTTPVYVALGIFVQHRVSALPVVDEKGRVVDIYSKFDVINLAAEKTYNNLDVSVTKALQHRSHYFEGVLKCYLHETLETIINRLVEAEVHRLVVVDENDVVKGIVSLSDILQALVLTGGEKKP
AMPK alpha2/beta1/gamma1 (Homo sapiens), sequence (P54646 whole entry): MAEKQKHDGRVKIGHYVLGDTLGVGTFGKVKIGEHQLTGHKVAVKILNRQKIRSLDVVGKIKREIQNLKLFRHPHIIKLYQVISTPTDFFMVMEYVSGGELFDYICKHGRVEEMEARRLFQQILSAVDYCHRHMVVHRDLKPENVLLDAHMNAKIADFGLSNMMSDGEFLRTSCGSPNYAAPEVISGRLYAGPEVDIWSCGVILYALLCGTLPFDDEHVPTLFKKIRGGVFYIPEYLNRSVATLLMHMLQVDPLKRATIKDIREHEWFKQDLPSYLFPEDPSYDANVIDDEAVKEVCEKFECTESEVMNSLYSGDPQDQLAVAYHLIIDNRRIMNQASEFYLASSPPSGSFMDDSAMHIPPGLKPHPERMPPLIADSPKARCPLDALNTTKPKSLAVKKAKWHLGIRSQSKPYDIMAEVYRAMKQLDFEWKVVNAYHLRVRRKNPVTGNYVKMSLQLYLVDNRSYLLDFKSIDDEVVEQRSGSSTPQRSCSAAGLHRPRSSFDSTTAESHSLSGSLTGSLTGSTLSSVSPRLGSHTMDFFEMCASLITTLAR
AMPK alpha2/beta1/gamma1 (Homo sapiens), sequence (Q9Y478 2-270 partner limits assumed): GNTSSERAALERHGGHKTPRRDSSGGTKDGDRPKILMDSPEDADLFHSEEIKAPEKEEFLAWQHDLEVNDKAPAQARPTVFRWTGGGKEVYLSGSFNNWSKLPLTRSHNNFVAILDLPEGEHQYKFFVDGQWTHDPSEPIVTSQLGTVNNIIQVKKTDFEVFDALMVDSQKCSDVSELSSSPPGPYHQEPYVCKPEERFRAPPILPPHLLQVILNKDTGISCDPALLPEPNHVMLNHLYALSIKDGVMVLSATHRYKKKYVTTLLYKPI

In the case of `O=C(O)c1cccc(CN2C(=O)/C(=C(\c3ccccc3)c3ccc(Cl)cc3)c3ccccc32)c1`, the Activity [1] is reported as “Active”, the Activity [2] is reported as “Active” and the concentration at 4 h [3] is reported as 3270 ng/mL. For the same molecule, the AUC(0-t) at 24 h [4] was 17300 ng·h/mL, the “inhibition (INH)” value [5] was “Not Active” and the “inhibition (INH)” value [6] was “Not Active”. For the same molecule, the Drug metabolism [7] was “Not Active”, the Activity [8] was “inactive” and the Efficacy [9] was 110%. For the same molecule, the Activity [10] was “Active”.
